Source: PubChem BioAssay AID1745844 (Carcinogenic Potency Database (CPDB), 2022)
Activity calls are given as the source filed them. How the calls were made is not given here.

Tested on: rodent lifetime carcinogenesis bioassay, tumor incidence TD50
Experiment: chronic cancer bioassays in animals – CPDB, compiled studies (AID 1745844)

`NNCc1ccccc1` was tested, and the TD50 (mouse, strain Swiss albino, females, in drinking water, site: liver, lesion: angiosarcoma, dosed 121 weeks, study length 121 weeks) was 252 mg/kg/day (inactive), the TD50 (mouse, strain Swiss albino, females, in drinking water, site: liver, lesion: several types, types named in the paper, dosed 121 weeks, study length 121 weeks) was 304 mg/kg/day and the TD50 (mouse, strain Swiss albino, females, in drinking water, site: lung, lesion: several types, types named in the paper, dosed 121 weeks, study length 121 weeks) was 85.3 mg/kg/day. The TD50 (mouse, strain Swiss albino, males, in drinking water, site: liver, lesion: several types, types named in the paper, dosed 100 weeks, study length 100 weeks) was 86.2 mg/kg/day and the TD50 (mouse, strain Swiss albino, males, in drinking water, site: lung, lesion: adenoma, dosed 100 weeks, study length 100 weeks) was 711 mg/kg/day (inactive).
With `Cc1ccc(/C(=C\CN2CCCC2)c2ccccn2)cc1` the carcinogen call (mouse, strain B6C3F1, females, in feed, site: any site (literature study), lesion: benign tumor, dosed 104 weeks, study length 105 weeks) was “negative (inactive)”, the carcinogen call (mouse, strain B6C3F1, females, in feed, site: any site (literature study), lesion: malignant tumor, dosed 104 weeks, study length 105 weeks) was “negative (inactive)” and the carcinogen call (mouse, strain B6C3F1, females, in feed, site: any site (literature study), lesion: several types, types named in the paper, dosed 104 weeks, study length 105 weeks) was “negative (inactive)”. For the same compound, the carcinogen call (mouse, strain B6C3F1, females, in feed, site: liver, lesion: hepatocellular adenoma, dosed 104 weeks, study length 105 weeks) was “negative (inactive)”, the carcinogen call (mouse, strain B6C3F1, females, in feed, site: liver, lesion: hepatocellular carcinoma, dosed 104 weeks, study length 105 weeks) was “negative (inactive)” and the carcinogen call (mouse, strain B6C3F1, females, in feed, site: liver, lesion: several types, types named in the paper, dosed 104 weeks, study length 105 weeks) was “negative (inactive)”. For the same compound, the carcinogen call (mouse, strain B6C3F1, females, in feed, site: lung, lesion: several types, types named in the paper, dosed 104 weeks, study length 105 weeks) was “negative (inactive)”, the carcinogen call (mouse, strain B6C3F1, males, in feed, site: any site (literature study), lesion: benign tumor, dosed 104 weeks, study length 105 weeks) was “negative (inactive)” and the carcinogen call (mouse, strain B6C3F1, males, in feed, site: any site (literature study), lesion: malignant tumor, dosed 104 weeks, study length 105 weeks) was “negative (inactive)”. For the same compound, the carcinogen call (mouse, strain B6C3F1, males, in feed, site: any site (literature study), lesion: several types, types named in the paper, dosed 104 weeks, study length 105 weeks) was “negative (inactive)”, the TD50 (mouse, strain B6C3F1, males, in feed, site: liver, lesion: hepatocellular adenoma, dosed 104 weeks, study length 105 weeks) was 2330 mg/kg/day (inactive) and the carcinogen call (mouse, strain B6C3F1, males, in feed, site: liver, lesion: hepatocellular carcinoma, dosed 104 weeks, study length 105 weeks) was “negative (inactive)”. The TD50 (mouse, strain B6C3F1, males, in feed, site: liver, lesion: several types, types named in the paper, dosed 104 weeks, study length 105 weeks) was 2750 mg/kg/day (inactive), the carcinogen call (mouse, strain B6C3F1, males, in feed, site: lung, lesion: several types, types named in the paper, dosed 104 weeks, study length 105 weeks) was “negative (inactive)” and the carcinogen call (rat, strain Fischer 344, females, in feed, site: any site (literature study), lesion: benign tumor, dosed 103 weeks, study length 104 weeks) was “negative (inactive)”. For the same compound, the carcinogen call (rat, strain Fischer 344, females, in feed, site: any site (literature study), lesion: malignant tumor, dosed 103 weeks, study length 104 weeks) was “negative (inactive)”, the carcinogen call (rat, strain Fischer 344, females, in feed, site: any site (literature study), lesion: several types, types named in the paper, dosed 103 weeks, study length 104 weeks) was “negative (inactive)” and the carcinogen call (rat, strain Fischer 344, females, in feed, site: liver, lesion: hepatocellular adenoma, dosed 103 weeks, study length 104 weeks) was “negative (inactive)”. The carcinogen call (rat, strain Fischer 344, females, in feed, site: liver, lesion: hepatocellular carcinoma, dosed 103 weeks, study length 104 weeks) was “negative (inactive)”, the TD50 (rat, strain Fischer 344, males, in feed, site: any site (literature study), lesion: benign tumor, dosed 103 weeks, study length 104 weeks) was 1170 mg/kg/day (inactive) and the carcinogen call (rat, strain Fischer 344, males, in feed, site: any site (literature study), lesion: malignant tumor, dosed 103 weeks, study length 104 weeks) was “negative (inactive)”. The carcinogen call (rat, strain Fischer 344, males, in feed, site: any site (literature study), lesion: several types, types named in the paper, dosed 103 weeks, study length 104 weeks) was “negative (inactive)”, the carcinogen call (rat, strain Fischer 344, males, in feed, site: liver, lesion: hepatocellular adenoma, dosed 103 weeks, study length 104 weeks) was “negative (inactive)” and the carcinogen call (rat, strain Fischer 344, males, in feed, site: liver, lesion: hepatocellular carcinoma, dosed 103 weeks, study length 104 weeks) was “negative (inactive)”.
For `Cc1ccc2ccccc2c1`, the TD50 (mouse, strain B6C3F1, females, in feed, site: liver, lesion: hepatocellular adenoma, dosed 81 weeks, study length 81 weeks) was 6060 mg/kg/day, the TD50 (mouse, strain B6C3F1, females, in feed, site: lung, lesion: several types, types named in the paper, dosed 81 weeks, study length 81 weeks) was 4010 mg/kg/day and the TD50 (mouse, strain B6C3F1, males, in feed, site: lung, lesion: alveolar/bronchiolar adenoma, dosed 81 weeks, study length 81 weeks) was 735 mg/kg/day. It also gave a TD50 (mouse, strain B6C3F1, males, in feed, site: lung, lesion: alveolar/bronchiolar carcinoma, dosed 81 weeks, study length 81 weeks) of 2780 mg/kg/day and a TD50 (mouse, strain B6C3F1, males, in feed, site: lung, lesion: several types, types named in the paper, dosed 81 weeks, study length 81 weeks) of 205 mg/kg/day.
`O=NC(=O)CCNCCO` was tested, and the TD50 (hamster, strain Syrian Golden, females, by gavage, site: liver, lesion: cholangioadenoma/carcinoma, dosed 50 weeks, study length 65 weeks) was 2.68 mg/kg/day, the TD50 (hamster, strain Syrian Golden, females, by gavage, site: liver, lesion: cholangiocarcinoma, dosed 50 weeks, study length 65 weeks) was 5.58 mg/kg/day and the TD50 (hamster, strain Syrian Golden, females, by gavage, site: liver, lesion: hepatocellular adenoma, dosed 50 weeks, study length 65 weeks) was 5.58 mg/kg/day. For the same compound, the TD50 (hamster, strain Syrian Golden, females, by gavage, site: liver, lesion: hepatocellular carcinoma/adenoma, dosed 50 weeks, study length 65 weeks) was 3.72 mg/kg/day, the TD50 (hamster, strain Syrian Golden, females, by gavage, site: liver, lesion: several types, types named in the paper, dosed 50 weeks, study length 65 weeks) was 0.997 mg/kg/day and the TD50 (hamster, strain Syrian Golden, females, by gavage, site: lung, lesion: adenoma, dosed 50 weeks, study length 65 weeks) was 31.3 mg/kg/day. The TD50 (hamster, strain Syrian Golden, females, by gavage, site: pancreatic duct, lesion: carcinoma, dosed 50 weeks, study length 65 weeks) was 3.72 mg/kg/day, the TD50 (hamster, strain Syrian Golden, females, by gavage, site: pancreatic duct, lesion: several types, types named in the paper, dosed 50 weeks, study length 65 weeks) was 2.31 mg/kg/day and the TD50 (rat, strain Fischer 344, females, in drinking water, site: liver, lesion: hepatocellular carcinoma, dosed 50 weeks, study length 120 weeks) was 2.7 mg/kg/day. The TD50 (rat, strain Fischer 344, females, in drinking water, site: liver, lesion: neoplastic nodule, dosed 50 weeks, study length 120 weeks) was 2.7 mg/kg/day and the TD50 (rat, strain Fischer 344, females, in drinking water, site: liver, lesion: several types, types named in the paper, dosed 50 weeks, study length 120 weeks) was 1.8 mg/kg/day.
With `CC(N)=S` the TD50 (mouse, strain ICR, males, in feed, site: liver, lesion: hepatocellular carcinoma, dosed 40 weeks, study length 88 weeks) was 15.3 mg/kg/day, the TD50 (mouse, strain ICR, males, in feed, site: liver, lesion: hyperplastic nodule, dosed 40 weeks, study length 88 weeks) was 12 mg/kg/day and the TD50 (mouse, strain Swiss, females, in feed, site: liver, lesion: hepatoma, dosed 65 weeks, study length 65 weeks) was 5.36 mg/kg/day. The carcinogen call (mouse, strain Swiss, males, in feed, site: liver, lesion: hepatoma, dosed 65 weeks, study length 65 weeks) was “positive”, the TD50 (rat, strain Donryu, males, in feed, site: liver, lesion: hepatocellular carcinoma, trabecular, dosed 40 weeks, study length 80 weeks) was 21.8 mg/kg/day and the TD50 (rat, strain Donryu, males, in feed, site: liver, lesion: papillary adenocarcinoma, dosed 40 weeks, study length 80 weeks) was 27.6 mg/kg/day. It also gave a TD50 (rat, strain Donryu, males, in feed, site: liver, lesion: several types, types named in the paper, dosed 40 weeks, study length 80 weeks) of 11.5 mg/kg/day.
`CC(C)(C)NC(=O)[C@H]1CC[C@H]2[C@@H]3CC[C@H]4NC(=O)C=C[C@]4(C)[C@H]3CC[C@]12C` was tested, and the TD50 (mouse, strain Charles River CD1, males, by gavage, site: testis, lesion: Leydig-cell adenoma, dosed 83 weeks, study length 83 weeks) was 326 mg/kg/day.
`C=CBr` was tested, and the TD50 (rat, strain Sprague-Dawley, females, inhaled, site: Zymbal's gland, lesion: squamous-cell carcinoma, dosed 81 weeks, study length 103 weeks) was 2240 mg/kg/day, the TD50 (rat, strain Sprague-Dawley, females, inhaled, site: liver, lesion: hepatocellular carcinoma, dosed 81 weeks, study length 103 weeks) was 749 mg/kg/day and the TD50 (rat, strain Sprague-Dawley, females, inhaled, site: liver, lesion: neoplastic nodule, dosed 81 weeks, study length 103 weeks) was 18.9 mg/kg/day. The TD50 (rat, strain Sprague-Dawley, females, inhaled, site: liver, lesion: several types, types named in the paper, dosed 81 weeks, study length 103 weeks) was 433 mg/kg/day, the TD50 (rat, strain Sprague-Dawley, females, inhaled, site: several sites, sites named in the paper, lesion: angiosarcoma, dosed 81 weeks, study length 103 weeks) was 19.2 mg/kg/day and the TD50 (rat, strain Sprague-Dawley, males, inhaled, site: Zymbal's gland, lesion: papilloma, dosed 76 weeks, study length 103 weeks) was 2760 mg/kg/day. For the same compound, the TD50 (rat, strain Sprague-Dawley, males, inhaled, site: Zymbal's gland, lesion: squamous-cell carcinoma, dosed 76 weeks, study length 103 weeks) was 409 mg/kg/day, the TD50 (rat, strain Sprague-Dawley, males, inhaled, site: liver, lesion: hepatocellular carcinoma, dosed 76 weeks, study length 103 weeks) was 387 mg/kg/day and the TD50 (rat, strain Sprague-Dawley, males, inhaled, site: liver, lesion: several types, types named in the paper, dosed 76 weeks, study length 103 weeks) was 303 mg/kg/day. It also gave a TD50 (rat, strain Sprague-Dawley, males, inhaled, site: several sites, sites named in the paper, lesion: angiosarcoma, dosed 76 weeks, study length 103 weeks) of 17.9 mg/kg/day.
For `CC(CN1c2ccccc2Sc2ccccc21)N(C)C` (centres undefined), the carcinogen call (mouse, strain B6C3F1, females, by gavage, site: any site (literature study), lesion: several types, types named in the paper, dosed 104 weeks, study length 105 weeks) was “negative (inactive)”, the TD50 (mouse, strain B6C3F1, females, by gavage, site: liver, lesion: hepatocellular adenoma + hepatoblastoma + hepatocellular carcinoma, dosed 104 weeks, study length 105 weeks) was 47.8 mg/kg/day and the TD50 (mouse, strain B6C3F1, males, by gavage, site: any site (literature study), lesion: several types, types named in the paper, dosed 103 weeks, study length 104 weeks) was 393 mg/kg/day (inactive). The TD50 (mouse, strain B6C3F1, males, by gavage, site: liver, lesion: hepatocellular adenoma + hepatoblastoma + hepatocellular carcinoma, dosed 103 weeks, study length 104 weeks) was 157 mg/kg/day, the carcinogen call (rat, strain Fischer 344, females, by gavage, site: any site (literature study), lesion: several types, types named in the paper, dosed 103 weeks, study length 104 weeks) was “negative (inactive)” and the TD50 (rat, strain Fischer 344, females, by gavage, site: liver, lesion: hepatocellular adenoma + hepatoblastoma + hepatocellular carcinoma, dosed 103 weeks, study length 104 weeks) was 418 mg/kg/day. The TD50 (rat, strain Fischer 344, males, by gavage, site: any site (literature study), lesion: several types, types named in the paper, dosed 102 weeks, study length 102 weeks) was 24.6 mg/kg/day and the TD50 (rat, strain Fischer 344, males, by gavage, site: testis, lesion: interstitial-cell adenoma, bilateral + interstitial-cell adenoma, dosed 102 weeks, study length 102 weeks) was 10.3 mg/kg/day (inactive).
`Cc1ccccc1N=O` gave a TD50 (rat, strain Fischer 344, males, in feed, site: liver, lesion: hepatoma, dosed 72 weeks, study length 93 weeks) of 59.2 mg/kg/day, a TD50 (rat, strain Fischer 344, males, in feed, site: liver, lesion: several types, types named in the paper, dosed 72 weeks, study length 93 weeks) of 50.7 mg/kg/day and a TD50 (rat, strain Fischer 344, males, in feed, site: peritoneal cavity, lesion: mesothelioma, dosed 72 weeks, study length 93 weeks) of 195 mg/kg/day. It also gave a TD50 (rat, strain Fischer 344, males, in feed, site: peritoneal cavity, lesion: spindle-cell sarcoma, dosed 72 weeks, study length 93 weeks) of 303 mg/kg/day, a TD50 (rat, strain Fischer 344, males, in feed, site: skin, lesion: fibroma, dosed 72 weeks, study length 93 weeks) of 55.8 mg/kg/day and a TD50 (rat, strain Fischer 344, males, in feed, site: spleen, lesion: fibroma, dosed 72 weeks, study length 93 weeks) of 87 mg/kg/day. It also gave a TD50 (rat, strain Fischer 344, males, in feed, site: urinary bladder, lesion: papilloma, dosed 72 weeks, study length 93 weeks) of 78.8 mg/kg/day and a TD50 (rat, strain Fischer 344, males, in feed, site: urinary bladder, lesion: several types, types named in the paper, dosed 72 weeks, study length 93 weeks) of 71.5 mg/kg/day.
